Data taken from patent publication US7342018B2, “Urokinase inhibitors and uses thereof” (Wilex AG, priority 1998, dated 2008).

Assays:
[1] = tested on: BN-472 rat mammary carcinoma; assay: BN-472 rat mammary carcinoma model, single agent and combination with cytotoxics (Example 11)
Procedure: WX-UK1 was dissolved in 5% w/v of D-mannitol to the appropriate dosage and administered once daily or twice weekly either subcutaneously (s.c.) or intraperitonally (i.p.).
Epirubicin (0.75-3 mg/kg body wight), paclitaxel (5-7.5 mg/kg) or 5-FU (20 and 40 mg/kg) was given once weekly by i.v. injection into the external jugular vein.
Control rats received the vehicle 5% w/v of D-mannitol once daily s.c.
A donor rat bearing a tumor of 20×20 mm was sacrificed, the tumor harvested ant the cortex part was sliced into cubes of approximately 10 mm^3 and the transplated orthotopically under the mammary fad pads of female Brown Norway rats.
Treatment was started three or six days (5-FU experiment) after tumor inoculation. Each treatment group consisted of 15 to 21 rats.
Tumor load is plotted as the average±standard error of the mean (SEM).
Tumor, organ weights as well as lung foci counts are presented in Box-Whisker graphs. […] Whiskers extend to the extreme lower 5th and upper 95th percentiles of values. Dots represent individual data.
P-values represent significance levels of pairwise comparisons of treatment groups versus vehicle control. For combination therapy experiments the P-values for the comparison of a cytostatic mono-therapy versus the combination therapy is given.

[2] = tested on: human breast carcinoma cells; assay: Fibrin matrix degradation assay (D dimer ELISA); format: cell-based; settings: different concentrations, 4 h (FIG. 2)
Procedure: To study the potential of tumor cells for breaking down an extracellular matrix, a fibrin matrix degradation assay was developed and used. A greater proteolytic activity of the tumor cells leads to a higher concentration of fibrin degradation products in the matrix supernatant. The matrix degradation capacity corresponds to the concentration of fibrin degradation products which are determined by means of ELISA (D dimer).
The fibrin gels were prepared in 24-well culture dishes from […] of fibrinogen (50 mg/ml) in PBS (pH 7.4), by 50 μl of thrombin (10 U/ml) and 50 μl of CaCl2 (150 mM) per well after incubation at 37° C. for 30 minutes. 2×10^5 breast carcinoma cells were seeded on said fibrin matrix in 1 ml of DMEM culture medium plus 10% fetal calf serum and 2 μg of Glu-plasminogen, and incubated for 4 h. The supernatant was then centrifuged, in order to remove the cells, and the fibrin degradation products were quantified by means of ELISA.

rat breast tumor BN472 = assay: BN472 rat breast tumor model, metastatic lung foci (Example 10); format: in vivo
Excerpt: In detail, the syngeneic transplantable spontaneously metastasizing rat breast tumor BN472 was used as a model. BN-472 transplantable rat mammary carcinoma used in this study was originally found spontaneously developed in a retired breeder female Brown Norway rat (Kort et al. J. Nat. Cancer Inst. 1984, 72: 7709-7713). The data presented here focus on the reduction in the number of metastatic lung foci as endpoint.
FIG. 7 depicts the anti-metastatic efficacy of WX-UK1 in a setting implying surgical resection of the orthotopically growing tumor at a defined size and various time points of therapy onset relative to resection. After orthotopic implantation of BN472 fragment under the mammary fat pad the primary tumors were allowed to grow to a fixed palpable size (4×4 mm). The treatments groups (n=18) were allocated in a way to ensure homogeneous group composition with respect to tumor residence periods (range 3-14 d) prior group allocation. Primary tumors were surgically removed 4 days after having reached the fixed size. Onsets of treatments with 0.3 mg/kg s.c. daily were group specifically either on the day of reaching the fixed size (PO)mor four (P4), eight (P8), or twelve (P112) days thereafter. […] Starting on day 3 after tumor inoculation treatment groups (n=15) received WX-UK1 at weekly doses of […] either by daily application of 0.3 mg/kg (0.3 mg/kg o.d.), by application of 1 mg/kg twice per week (1 mg/kg t.w.) or by dosing 2 mg/kg once per week (2 mg/kg o.w.). The anti-metastatic efficacy previously established with daily treatments was retained when WX-UK1 was administered only twice or once per week at the same weekly dose.
Treatment was initiated on day 3 after tumor inoculation. b) Groups of rats (n=8) were treated with 5-FU at 20 or 40 mg/kg i.v. once weekly either as mono-therapy or in combination with WX-UK1 i.p. treatments at 1 mg/kg twice weekly or with WX-UK1 alone. Indeed, WX-UK1 was efficacious at reducing lung foci numbers when combined with these standard therapeutics.

[3] = tested on: pancreatic adenocarcinoma CA20948; assay: Pancreatic carcinoma model in rats; format: in vivo, rat; settings: for mass of the tumor-containing pancreas, reduced by % / masses of the subcutaneous tumors, reduced by %: vs vehicle-treated group
Procedure: Fragments of the transplantable and metastasizing pancreatic adenocarcinoma CA20948 from rats were explanted from donor animals. After cell isolation, equal amounts of suspended tumor cells together with 2 mg of Matrigel were subcutaneously implanted into each of the acceptor animals, male 10 week-old Lewis rats (n=9). The treatment procedure and also the composition of the therapy groups were the same as under A).
The experiments described in sections A and B were repeated with the inhibitor administered in a different way. For this, the inhibitor was administered subcutaneously in the breast carcinoma model (n=9) and intraperitoneally in the pancreatic adenocarcinoma model (n=8) without changing the daily dose. The results of these repeat experiments corresponded to the results already discussed, both in tendency and extent.

[4] = Phase I clinical trial in healthy male volunteers (WX/50-001); format: in vivo, human; settings: for tolerability: all dose levels
Procedure: In the first clinical trial with WX-UK1 (WX/50-001) the drug was investigated in a double-blind, randomized, three-way cross-over, placebo controlled phase I study focussing on pharmacokinetics, pharmacodynamics, safety, and tolerability of increasing doses of WX-UK1.
In this study six ascending i.v. Doses of WX-UK1 in the range of 0.01 to 0-3 mg/kg were administered and each dose was given to groups of six healthy male volunteers.

Glandular kallikrein = Glandular kallikrein (Homo sapiens, UniProt P06870); assay: In vitro inhibition of serine proteases: glandular kallikrein; format: biochemical
Procedure: (§1) Ki values were determined according to Dixon by linear regression using a computer program.

Thrombin = Thrombin (Homo sapiens, UniProt P00734); assay: In vitro inhibition of serine proteases: thrombin; format: biochemical
Procedure: as §1

[5] = tested on: human ovarian carcinoma cells OV-MZ-6; assay: Cytotoxicity determination (tetrazolium salt conversion, Promega); format: cell-based
Excerpt: To determine cell proliferation/cytotoxicity a commercially available test was used (Promega) which is based on the cellular conversion of a tetrazolium salt. The colored product resulting from this reaction can be quantified by means of an ELISA spectrometer (ICN flow). The synthetic inhibitor (open circles) had no effect on the growth of the human ovarian carcinoma cells OV-MZ-6 (FIG. 1) when compared with the solvent alone (closed circles). Thus, the inventive uPA inhibitor is not cytotoxic in pharmacologically effective concentrations up to 40 μM.

[6] = 1 mg/kg daily, vs naphthyl derivative and control (FIG. 5)

Glandular kallikrein, sequence (P06870 25-262): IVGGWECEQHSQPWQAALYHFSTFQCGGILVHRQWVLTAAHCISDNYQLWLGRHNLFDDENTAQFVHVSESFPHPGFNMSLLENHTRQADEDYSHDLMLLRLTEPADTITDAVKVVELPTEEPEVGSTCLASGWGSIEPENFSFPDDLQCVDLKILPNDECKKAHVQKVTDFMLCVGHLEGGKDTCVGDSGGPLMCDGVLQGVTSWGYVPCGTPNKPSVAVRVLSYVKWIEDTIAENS

SMILES: CCOC(=O)N1CCN(C(=O)[C@H](Cc2cccc(C(=N)N)c2)NS(=O)(=O)c2c(C(C)C)cc(C(C)C)cc2C(C)C)CC1.Cl [uPA inhibitor, Nα-2,4,6-Triisopropylphenylsulfonyl-(L)-3-amidinophenylalanine 4-ethoxycarbonylpiperazide hydrochloride]
- anti-metastatic effects in combination therapies (lymph nodes weight, macroscopic lung foci number) ([1]; WX-UK1 and the cytostatic agents): additional anti-metastatic effects
- anti-metastatic effects in combination ([1]; combined with either epirubicin and in particular with 5-FU): statistically significant additive anti-metastatic effects
- number of macroscopically detectable lung foci ([1]; compared with 5-FU): equally effective
- number of macroscopically detectable lung foci ([1]; compared with epirubicin or paclitaxel): more effectively reduced
- anti-tumor effects (tumor size development, final tumor weight) ([1]; daily administration): Dose-dependent anti-tumor effects
- metastatic endpoints in combination ([1]; plus epirubicin, paclitaxel or 5-FU): tended to provide additive benefits
- reducing lymphogenic spread as determined by lymph-node weight ([1]; single agent, compared with epirubicin, paclitaxel or 5-FU alone): more or similarly active
- inhibition of fibrin matrix degradation by breast carcinoma cells [2]: significant inhibition
- anti-metastatic activity with surgical resection of the primary tumor (rat breast tumor BN472; 0.3 mg/kg s.c. daily, various onsets relative to resection (FIG. 7)): Anti-metastatic activity was obvious
- anti-metastatic efficacy at prolonged dosing intervals (rat breast tumor BN472; 1 mg/kg twice per week or 2 mg/kg once per week vs 0.3 mg/kg daily (FIG. 8)): retained
- reducing lung foci numbers in combination (rat breast tumor BN472; combined with epirubicin or 5-FU (FIG. 9)): efficacious
- growth of developing rat pancreatic carcinomas [3, 6]: decrease
- tumor weight [3, 6]: significant reduction
- number of detected liver foci, % compared to vehicle-treated control ([3]; i.p., 1 mg/kg daily): 29%
- mass of the tumor-containing pancreas, reduced by % ([3]; i.p., 1 mg/kg daily): 76%
- masses of the subcutaneous tumors, reduced by % ([3]; i.p., 1 mg/kg daily): 54%
- number of metastatic liver foci ([3]; rat pancreatic cancer model, vs vehicle-treated controls): substantially reduced
- number of detected liver foci, % compared to vehicle-treated control ([3]; s.c., 1 mg/kg daily): 2%
- mass of the tumor-containing pancreas, reduced by % ([3]; s.c., 1 mg/kg daily): 34%
- masses of the subcutaneous tumors, reduced by % ([3]; s.c., 1 mg/kg daily): 60%
- changes in vital signs, ECG parameters, general safety laboratory parameters and adverse event profiles ([4]; attributable to the study drug): No changes
- mean increases of coagulation parameters PT, aPTT and TT ([4]; doses of 0.05 mg/kg and higher, end of infusion, 0-5% with placebo): 6-13%
- dose proportionality in PK studies ([4]; healthy volunteers): good dose proportionality
- systemic and local safety profile ([4]; healthy volunteers): advantageous systemic and local safety profile
- bleeding times ([4]; human, in vivo): unchanged
- drug-induced hemolysis ([4]; human, in vivo): no indication
- time for coagulation parameters to return to baseline ([4]; human, in vivo): ≤ 15 min
- time of maximum plasma concentrations ([4]; i.v. infusion (FIG. 10)): at the end of the 30 min. infusion period
- mean terminal half lives ([4]; i.v. infusion, healthy male volunteers): 10 to 12 h
- tolerability ([4]; i.v. infusion, healthy volunteers, listed as WK-UK1, hydrochloride): well tolerated
- tolerability ([4]; i.v. infusion, healthy volunteers, listed as WX-UK1, hydrochloride): very well tolerated
- renal excretion of the parent compound ([4]; share of the dose): less then one percent
- Ki (Glandular kallikrein): > 1000 µM
- Ki (Thrombin): 0.49 µM
- effect on the growth of OV-MZ-6 cells ([5]; compared with the solvent alone (FIG. 1)): no effect
- cytotoxicity ([5]; concentrations up to 40 μM): not cytotoxic
